In paper PMC9817970 (Cancers, 2022):

How the values were obtained:
Experiment in all cases: Kinase panel profiling
Assay type in all cases: biochemical
Conditions in all cases: 10 μM ATP
[1] = target: T1, Haspin (Homo sapiens, UniProt Q8TF76)
T1 construct: purchased Reaction Biology Corp
Protocol: (§1) Kinase panel profiling was conducted by Reaction Biology Corp. (San Diego, CA, USA). A single dose (1.0 μM) of 6r was tested against 371 recombinant human kinases in the presence of 10 μM ATP.

[2] = target: T2, DLK/MAP3K12 (Homo sapiens, UniProt Q12852)
T2 construct: purchased Reaction Biology Corp
Protocol: as §1

[3] = target: T3, AXL (Homo sapiens, UniProt P30530)
T3 construct: purchased Reaction Biology Corp
Protocol: as §1

[4] = target: T4, MSK2/RPS6KA4 (Homo sapiens, UniProt O75676)
T4 construct: purchased Reaction Biology Corp
Protocol: as §1

[5] = target: T5, KHS/MAP4K5 (Homo sapiens, UniProt Q9Y4K4)
T5 construct: purchased Reaction Biology Corp
Protocol: as §1

[6] = target: T6, MARK2/PAR-1Ba (Homo sapiens, UniProt Q7KZI7)
T6 construct: purchased Reaction Biology Corp
Protocol: as §1

[7] = target: T7, IKKb/IKBKB (Homo sapiens, UniProt O14920)
T7 construct: purchased Reaction Biology Corp
Protocol: as §1

[8] = target: T8, COT1/MAP3K8 (Homo sapiens, UniProt P41279)
T8 construct: purchased Reaction Biology Corp
Protocol: as §1

[9] = target: T9, SNRK (Homo sapiens, UniProt Q9NRH2)
T9 construct: purchased Reaction Biology Corp
Protocol: as §1

[10] = target: T10, MNK1 (Homo sapiens, UniProt Q9BUB5)
T10 construct: purchased Reaction Biology Corp
Protocol: as §1

[11] = target: T11, FLT1/VEGFR1 (Homo sapiens, UniProt P17948)
T11 construct: purchased Reaction Biology Corp
Protocol: as §1

[12] = target: T12, ARK5/NUAK1 (Homo sapiens, UniProt O60285)
T12 construct: purchased Reaction Biology Corp
Protocol: as §1

[13] = target: T13, IRAK4 (Homo sapiens, UniProt Q9NWZ3)
T13 construct: purchased Reaction Biology Corp
Protocol: as §1

[14] = target: T14, DDR1 (Homo sapiens, UniProt Q08345)
T14 construct: purchased Reaction Biology Corp
Protocol: as §1

[15] = target: T15, DYRK4 (Homo sapiens, UniProt Q9NR20)
T15 construct: purchased Reaction Biology Corp
Protocol: as §1

[16] = target: T16, SIK1 (Homo sapiens, UniProt P57059)
T16 construct: purchased Reaction Biology Corp
Protocol: as §1

[17] = target: T17, SRMS (Homo sapiens, UniProt Q9H3Y6)
T17 construct: purchased Reaction Biology Corp
Protocol: as §1

[18] = target: T18, ERN2/IRE2 (Homo sapiens, UniProt Q76MJ5)
T18 construct: purchased Reaction Biology Corp
Protocol: as §1

[19] = target: T19, MKK6 (Homo sapiens, UniProt P52564)
T19 construct: purchased Reaction Biology Corp
Protocol: as §1

[20] = target: T20, PYK2 (Homo sapiens, UniProt Q14289)
T20 construct: purchased Reaction Biology Corp
Protocol: as §1

[21] = target: T21, STK38/NDR1 (Homo sapiens, UniProt Q15208)
T21 construct: purchased Reaction Biology Corp
Protocol: as §1

[22] = target: T22, STK25/YSK1 (Homo sapiens, UniProt O00506)
T22 construct: purchased Reaction Biology Corp
Protocol: as §1

[23] = target: T23, PKCb2 (Homo sapiens, UniProt P05771)
T23 construct: purchased Reaction Biology Corp
Protocol: as §1

[24] = target: T24, AURORA B (Homo sapiens, UniProt Q96GD4)
T24 construct: purchased Reaction Biology Corp
Protocol: as §1

[25] = target: T25, ROCK2 (Homo sapiens, UniProt O75116)
T25 construct: purchased Reaction Biology Corp
Protocol: as §1

[26] = target: T26, SNARK/NUAK2 (Homo sapiens, UniProt Q9H093)
T26 construct: purchased Reaction Biology Corp
Protocol: as §1

[27] = target: T27, TYK2 (Homo sapiens, UniProt P29597)
T27 construct: purchased Reaction Biology Corp
Protocol: as §1

[28] = target: T28, PKCg (Homo sapiens, UniProt P05129)
T28 construct: purchased Reaction Biology Corp
Protocol: as §1

[29] = target: T29, TBK1 (Homo sapiens, UniProt Q9UHD2)
T29 construct: purchased Reaction Biology Corp
Protocol: as §1

[30] = target: T30, TGFBR2 (Homo sapiens, UniProt P37173)
T30 construct: purchased Reaction Biology Corp
Protocol: as §1

[31] = target: T31, DYRK2 (Homo sapiens, UniProt Q92630)
T31 construct: purchased Reaction Biology Corp
Protocol: as §1

[32] = target: T32, JNK3 (Homo sapiens, UniProt P53779)
T32 construct: purchased Reaction Biology Corp
Protocol: as §1

[33] = target: T33, GSK3a (Homo sapiens, UniProt P49840)
T33 construct: purchased Reaction Biology Corp
Protocol: as §1

[34] = target: T34, Aurora A (Homo sapiens, UniProt O14965)
T34 construct: purchased Reaction Biology Corp
Protocol: as §1

[35] = target: T35, CAMK2g (Homo sapiens, UniProt Q13555)
T35 construct: purchased Reaction Biology Corp
Protocol: as §1

[36] = target: T36, CAMK1d (Homo sapiens, UniProt Q8IU85)
T36 construct: purchased Reaction Biology Corp
Protocol: as §1

[37] = target: T37, MEK5 (Homo sapiens, UniProt Q13163)
T37 construct: purchased Reaction Biology Corp
Protocol: as §1

[38] = target: T38, JAK3 (Homo sapiens, UniProt P52333)
T38 construct: purchased Reaction Biology Corp
Protocol: as §1

[39] = target: T39, PKCnu/PRKD3 (Homo sapiens, UniProt O94806)
T39 construct: purchased Reaction Biology Corp
Protocol: as §1

[40] = target: T40, NLK (Homo sapiens, UniProt Q9UBE8)
T40 construct: purchased Reaction Biology Corp
Protocol: as §1

[41] = target: T41, TIE2/TEK (Homo sapiens, UniProt Q02763)
T41 construct: purchased Reaction Biology Corp
Protocol: as §1

[42] = target: T42, CK2a (Homo sapiens, UniProt P68400)
T42 construct: purchased Reaction Biology Corp
Protocol: as §1

T27 sequence (P29597 whole entry): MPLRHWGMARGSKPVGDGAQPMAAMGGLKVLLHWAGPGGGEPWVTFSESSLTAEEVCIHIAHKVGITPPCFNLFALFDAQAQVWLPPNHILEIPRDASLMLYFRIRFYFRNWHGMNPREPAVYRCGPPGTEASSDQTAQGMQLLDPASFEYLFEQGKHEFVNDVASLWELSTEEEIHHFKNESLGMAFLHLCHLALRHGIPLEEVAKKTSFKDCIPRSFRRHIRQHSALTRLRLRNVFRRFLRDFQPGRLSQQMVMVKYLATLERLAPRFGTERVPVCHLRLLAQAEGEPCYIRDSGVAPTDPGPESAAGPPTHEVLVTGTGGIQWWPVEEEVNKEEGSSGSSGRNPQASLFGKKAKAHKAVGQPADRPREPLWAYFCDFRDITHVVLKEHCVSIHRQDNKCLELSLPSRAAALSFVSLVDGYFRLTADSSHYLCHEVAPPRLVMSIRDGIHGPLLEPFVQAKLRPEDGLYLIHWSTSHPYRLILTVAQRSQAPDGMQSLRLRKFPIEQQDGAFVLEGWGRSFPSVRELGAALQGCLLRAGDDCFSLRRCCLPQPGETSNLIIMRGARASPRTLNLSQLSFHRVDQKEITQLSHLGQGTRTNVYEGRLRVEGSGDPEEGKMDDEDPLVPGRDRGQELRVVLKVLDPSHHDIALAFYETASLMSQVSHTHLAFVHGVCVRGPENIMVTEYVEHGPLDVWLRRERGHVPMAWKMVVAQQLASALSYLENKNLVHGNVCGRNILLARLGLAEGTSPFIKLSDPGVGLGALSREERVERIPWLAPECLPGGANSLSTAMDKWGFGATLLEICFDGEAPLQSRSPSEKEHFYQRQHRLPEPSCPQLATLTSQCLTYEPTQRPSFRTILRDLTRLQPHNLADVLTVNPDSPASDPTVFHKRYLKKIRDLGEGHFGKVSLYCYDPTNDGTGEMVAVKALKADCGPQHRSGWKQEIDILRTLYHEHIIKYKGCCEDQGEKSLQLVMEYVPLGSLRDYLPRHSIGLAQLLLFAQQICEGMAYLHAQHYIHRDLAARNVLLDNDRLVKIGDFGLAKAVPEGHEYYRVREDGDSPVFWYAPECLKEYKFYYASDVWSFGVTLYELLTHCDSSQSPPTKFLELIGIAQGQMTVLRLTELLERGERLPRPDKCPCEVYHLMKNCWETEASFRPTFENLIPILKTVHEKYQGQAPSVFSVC
T38 sequence (P52333 whole entry): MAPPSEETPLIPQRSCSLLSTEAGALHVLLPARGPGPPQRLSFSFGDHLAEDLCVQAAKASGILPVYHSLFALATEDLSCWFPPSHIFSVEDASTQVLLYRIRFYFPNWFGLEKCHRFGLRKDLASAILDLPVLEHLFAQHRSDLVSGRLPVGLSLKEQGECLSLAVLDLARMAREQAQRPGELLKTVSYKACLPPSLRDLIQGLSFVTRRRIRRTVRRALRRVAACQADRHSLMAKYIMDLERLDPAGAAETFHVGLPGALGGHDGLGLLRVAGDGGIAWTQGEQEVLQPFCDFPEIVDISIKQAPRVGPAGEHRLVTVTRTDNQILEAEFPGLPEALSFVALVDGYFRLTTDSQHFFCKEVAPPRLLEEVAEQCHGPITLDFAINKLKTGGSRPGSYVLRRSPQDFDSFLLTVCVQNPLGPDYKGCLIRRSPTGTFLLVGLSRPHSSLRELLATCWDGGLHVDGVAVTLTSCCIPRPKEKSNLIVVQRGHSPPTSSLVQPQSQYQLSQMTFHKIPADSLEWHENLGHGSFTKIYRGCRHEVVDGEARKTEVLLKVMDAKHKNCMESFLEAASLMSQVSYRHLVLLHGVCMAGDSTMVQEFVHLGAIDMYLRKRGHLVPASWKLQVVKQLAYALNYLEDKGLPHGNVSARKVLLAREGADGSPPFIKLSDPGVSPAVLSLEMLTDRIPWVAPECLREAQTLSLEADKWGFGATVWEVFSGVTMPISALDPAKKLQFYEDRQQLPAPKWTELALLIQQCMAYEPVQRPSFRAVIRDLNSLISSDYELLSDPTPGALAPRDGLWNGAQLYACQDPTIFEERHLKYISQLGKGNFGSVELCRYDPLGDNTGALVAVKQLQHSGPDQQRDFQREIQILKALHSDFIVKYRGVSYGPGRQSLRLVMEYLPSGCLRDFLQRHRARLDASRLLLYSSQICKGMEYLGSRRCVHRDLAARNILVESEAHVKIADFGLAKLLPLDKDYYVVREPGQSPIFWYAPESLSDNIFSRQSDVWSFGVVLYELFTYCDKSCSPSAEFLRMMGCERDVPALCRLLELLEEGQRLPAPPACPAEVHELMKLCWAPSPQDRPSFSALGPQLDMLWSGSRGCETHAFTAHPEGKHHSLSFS
T24 sequence (Q96GD4 whole entry): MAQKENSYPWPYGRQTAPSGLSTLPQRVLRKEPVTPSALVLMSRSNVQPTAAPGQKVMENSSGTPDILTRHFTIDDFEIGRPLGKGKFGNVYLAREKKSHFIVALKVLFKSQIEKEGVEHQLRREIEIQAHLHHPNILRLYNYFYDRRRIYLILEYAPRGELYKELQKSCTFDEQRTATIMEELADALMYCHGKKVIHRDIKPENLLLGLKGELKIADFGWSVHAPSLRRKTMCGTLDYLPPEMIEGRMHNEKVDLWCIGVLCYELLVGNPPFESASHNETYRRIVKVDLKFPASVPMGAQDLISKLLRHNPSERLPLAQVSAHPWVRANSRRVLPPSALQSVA
T23 sequence (P05771 1-673 isoform P05771-2): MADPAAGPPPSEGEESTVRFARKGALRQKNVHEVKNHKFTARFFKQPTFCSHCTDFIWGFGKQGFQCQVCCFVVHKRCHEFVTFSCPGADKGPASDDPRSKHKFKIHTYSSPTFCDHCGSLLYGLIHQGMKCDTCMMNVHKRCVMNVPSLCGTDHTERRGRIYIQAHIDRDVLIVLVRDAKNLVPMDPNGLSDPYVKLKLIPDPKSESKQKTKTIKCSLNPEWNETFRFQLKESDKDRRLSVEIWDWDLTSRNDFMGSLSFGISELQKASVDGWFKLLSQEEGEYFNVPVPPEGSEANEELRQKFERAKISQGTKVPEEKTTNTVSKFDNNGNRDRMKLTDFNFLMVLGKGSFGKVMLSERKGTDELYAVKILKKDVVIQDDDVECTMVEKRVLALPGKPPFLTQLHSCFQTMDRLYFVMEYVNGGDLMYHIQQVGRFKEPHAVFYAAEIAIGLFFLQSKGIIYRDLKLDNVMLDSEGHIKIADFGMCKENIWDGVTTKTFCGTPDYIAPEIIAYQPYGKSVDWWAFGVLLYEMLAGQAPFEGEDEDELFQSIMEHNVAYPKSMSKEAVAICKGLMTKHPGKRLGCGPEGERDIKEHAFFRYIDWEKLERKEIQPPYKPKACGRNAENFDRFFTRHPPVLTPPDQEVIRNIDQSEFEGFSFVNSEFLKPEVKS
T15 sequence (Q9NR20 whole entry): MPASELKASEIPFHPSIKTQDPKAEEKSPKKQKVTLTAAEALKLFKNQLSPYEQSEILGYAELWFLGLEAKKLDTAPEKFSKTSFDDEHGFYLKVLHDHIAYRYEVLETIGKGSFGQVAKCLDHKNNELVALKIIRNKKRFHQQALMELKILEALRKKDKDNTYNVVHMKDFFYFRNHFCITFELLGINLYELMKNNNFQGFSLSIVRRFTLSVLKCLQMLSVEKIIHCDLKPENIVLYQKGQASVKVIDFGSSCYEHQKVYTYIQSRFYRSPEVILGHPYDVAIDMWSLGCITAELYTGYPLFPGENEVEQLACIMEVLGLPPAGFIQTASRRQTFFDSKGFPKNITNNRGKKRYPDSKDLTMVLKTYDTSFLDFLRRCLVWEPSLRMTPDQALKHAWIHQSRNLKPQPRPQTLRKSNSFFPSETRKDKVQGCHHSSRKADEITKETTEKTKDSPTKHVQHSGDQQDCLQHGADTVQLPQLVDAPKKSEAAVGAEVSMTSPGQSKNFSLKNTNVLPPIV
T2 sequence (Q12852 whole entry): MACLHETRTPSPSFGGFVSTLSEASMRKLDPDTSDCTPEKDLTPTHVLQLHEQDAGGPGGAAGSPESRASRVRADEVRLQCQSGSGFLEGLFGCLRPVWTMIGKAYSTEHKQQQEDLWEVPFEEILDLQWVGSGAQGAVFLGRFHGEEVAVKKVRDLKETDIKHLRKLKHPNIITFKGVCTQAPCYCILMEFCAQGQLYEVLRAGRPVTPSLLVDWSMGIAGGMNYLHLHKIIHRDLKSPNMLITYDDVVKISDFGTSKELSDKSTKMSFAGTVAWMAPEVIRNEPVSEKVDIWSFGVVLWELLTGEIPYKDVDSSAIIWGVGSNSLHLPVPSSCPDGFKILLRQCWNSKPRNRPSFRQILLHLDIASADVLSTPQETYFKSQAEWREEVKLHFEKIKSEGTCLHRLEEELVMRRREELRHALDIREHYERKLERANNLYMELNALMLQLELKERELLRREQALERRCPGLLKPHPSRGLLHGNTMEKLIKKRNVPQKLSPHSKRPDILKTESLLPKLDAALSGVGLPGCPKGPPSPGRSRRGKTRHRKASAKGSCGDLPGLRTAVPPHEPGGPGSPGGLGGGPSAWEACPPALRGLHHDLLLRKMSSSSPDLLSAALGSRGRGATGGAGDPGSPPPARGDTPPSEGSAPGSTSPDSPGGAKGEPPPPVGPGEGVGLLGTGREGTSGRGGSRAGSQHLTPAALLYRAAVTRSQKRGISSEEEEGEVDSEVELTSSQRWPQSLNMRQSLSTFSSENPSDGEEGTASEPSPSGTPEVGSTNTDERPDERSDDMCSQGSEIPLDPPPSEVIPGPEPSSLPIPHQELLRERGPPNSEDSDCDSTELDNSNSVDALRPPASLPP
T19 sequence (P52564 whole entry): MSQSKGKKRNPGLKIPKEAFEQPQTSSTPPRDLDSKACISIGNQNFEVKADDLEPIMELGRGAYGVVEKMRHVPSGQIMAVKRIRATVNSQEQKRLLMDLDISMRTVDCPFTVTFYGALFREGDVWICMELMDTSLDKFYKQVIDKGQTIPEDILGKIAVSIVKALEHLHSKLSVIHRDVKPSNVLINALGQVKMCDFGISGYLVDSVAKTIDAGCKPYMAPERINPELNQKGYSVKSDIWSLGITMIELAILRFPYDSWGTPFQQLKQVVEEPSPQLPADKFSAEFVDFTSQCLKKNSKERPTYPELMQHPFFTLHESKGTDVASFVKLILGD

Cc1ccc(NC(=O)c2ccc(CN3CCN(C)CC3)c(C(F)(F)F)c2)cc1-c1cnc2sc(N)nc2c1 [6r] showed an inhibition at 1 µM [1] of 12.1%, an inhibition at 1 µM [2] of 0% and an inhibition at 1 µM [3] of 15.8%. It also gave an inhibition at 1 µM [4] of 17.1%, an inhibition at 1 µM [5] of 0% and an inhibition at 1 µM [6] of 0%. It also gave an inhibition at 1 µM [7] of 0%, an inhibition at 1 µM [8] of 9.2% and an inhibition at 1 µM [9] of 0%. For the same compound, the inhibition at 1 µM [10] was 0%, the inhibition at 1 µM [11] was 63.7% and the inhibition at 1 µM [12] was 14.7%. The inhibition at 1 µM [13] was 0%, the inhibition at 1 µM [14] was 99.9% and the inhibition at 1 µM [15] was 0%. The inhibition at 1 µM [16] was 1.1%, the inhibition at 1 µM [17] was 9.2% and the inhibition at 1 µM [18] was 12.9%. For the same compound, the inhibition at 1 µM [19] was 6.6%, the inhibition at 1 µM [20] was 48.1% and the inhibition at 1 µM [21] was 17.1%. The inhibition at 1 µM [22] was 9.3%, the inhibition at 1 µM [23] was 12.7% and the inhibition at 1 µM [24] was 0%. It also gave an inhibition at 1 µM [25] of 0.6%, an inhibition at 1 µM [26] of 0% and an inhibition at 1 µM [27] of 7.8%. For the same compound, the inhibition at 1 µM [28] was 0.7%, the inhibition at 1 µM [29] was 5% and the inhibition at 1 µM [30] was 0%. It also gave an inhibition at 1 µM [31] of 0.6%, an inhibition at 1 µM [32] of 5.1% and an inhibition at 1 µM [33] of 7.4%. It also gave an inhibition at 1 µM [34] of 0%, an inhibition at 1 µM [35] of 0% and an inhibition at 1 µM [36] of 14.3%. The inhibition at 1 µM [37] was 6.5%, the inhibition at 1 µM [38] was 7.8% and the inhibition at 1 µM [39] was 23.8%. The inhibition at 1 µM [40] was 7.3%, the inhibition at 1 µM [41] was 24.4% and the inhibition at 1 µM [42] was 21.7%.
